According to PMC6694829, “Identification of Immunodominant HIV-1 Epitopes Presented by HLA-C*12:02, a Protective Allele, Using an Immunopeptidomics Approach” (Journal of Virology, 2019):

Key:
[1] = test system: CD8+ T cells; experiment: intracellular cytokine staining (ICS) assay with peptide-expanded bulk T cells; format: cell-based, human; details: peptide-expanded bulk T cells from responder KI-1407 (Env-RL9) or KI-1394 (Vif-DY9); IFN-γ ICS; words
Procedure: PBMCs from HIV-1-infected individuals were expanded by culture with each HIV-1 peptide for 2 weeks. .221-C1202 cells prepulsed with each HIV-1 peptide or .221-C1202 cells infected with HIV-1 NL4-3 were added to a 96-well plate together with bulk-cultured T cells, and the cells were incubated for 4 h at 37°C with brefeldin A (10 μg/ml). The cells were then stained with peridinin chlorophyll protein (PerCP)-labeled anti-CD3 mAb (BioLegend), phycoerythrin (PE)-labeled anti-CD4 mAb (BioLegend), and allophycocyanin (APC)-labeled anti-CD8 mAb (Dako) and subsequently fixed with 4% paraformaldehyde and incubated in permeabilization buffer (0.1% saponin–10% FBS–PBS). Thereafter, the cells were stained with FITC-labeled anti-IFN-γ mAb (BioLegend). Staining data were acquired on a FACSCanto II instrument (BD Biosciences) and analyzed using FlowJo 10.5.3 software.

[2] = test system: PBMCs from HIV-1-infected HLA-C*12:02+ individuals; experiment: ex vivo IFN-γ ELISpot assay; format: cell-based, human; details: for number of individuals with T cell response to the peptide: of 20 chronically HIV-1-infected HLA-C*12:02+ Japanese individuals, peptide 1 μM, positive >100 spots/10^6 PBMCs; for average magnitude of the T cell responses in individuals recognizing the epitope: ex vivo ELISpot, 20 HLA-C*12:02+ individuals screened, responders only
Procedure: Peripheral blood mononuclear cells (PBMCs) were separated from whole blood and stored at −80°C. ELISpot assays were performed as previously described ([52]). […] The plates were then incubated for 16 h at 37°C and subsequently washed with PBS before the addition of biotinylated anti-IFN-γ mAb (Mabtech) at 1 μg/ml. After the plates had been incubated at room temperature for 90 min, they were washed with PBS and then incubated with streptavidin-conjugated alkaline phosphatase (Mabtech) for 60 min at room temperature. Following washes with PBS, individual cytokine-producing cells were visualized as dark spots after a 20-min reaction with 5-bromo-4-chloro-3-indolyl phosphate and nitroblue tetrazolium in the presence of an alkaline phosphatase-conjugated substrate (Bio-Rad). The spots were counted with an Eliphoto-Counter (Minerva Teck). The number of spots was calculated per 10^6 PBMCs. One hundred spots per 10^6 PBMCs were defined as a positive response, as described previously ([52]).

[3] = target: HLA-C*12:02 (Homo sapiens, UniProt P10321, A176E/A330V/C350S/D114A/D33Y/L171W/L180W/L218V/M285V/M309V/M331V/P208H/Q277E/Q291P/S123Y/S297R/S48A/T329A/T363A/V319A/V328M); experiment: HLA class I stabilization assay using RMA-S-C1202 cells; format: cell-based; details: for binding to HLA-C*12:02 at higher peptide concentration / binding to HLA-C*12:02 (stabilization of surface HLA expression, expression index): RMA-S-C1202 cells, result in words; for binding to HLA-C*12:02 at higher peptide concentration: peptide 100 to 300 μM; for binding to HLA-C*12:02 (stabilization of surface HLA expression, expression index): peptide 0.1 to 100 μM, pulsed 26°C 1 h then 37°C 3 h, DT-9 staining, flow cytometry; for affinities of binding to HLA-C*12:02, Nef-MY9 compared with Nef-MY10: data not shown, words
Procedure: The affinity of peptide binding to HLA-C*12:02 was examined using RMA-S-C1202 cells as previously described ([67]). Briefly, RMA-S-C1202 cells were cultured at 26°C for 16 h and then pulsed with peptides at 26°C for 1 h and subsequently incubated at 37°C for 3 h. Staining of cell surface HLA-C molecules was performed with DT-9, an HLA-C-specific monoclonal antibody (mAb) (a gift from Mary Carrington, NIH), and fluorescein isothiocyanate (FITC)-conjugated sheep anti-mouse IgG (Jackson ImmunoResearch). Staining data were acquired on a FACSCanto II instrument (BD Biosciences) and analyzed using FlowJo 10.5.3 software. Relative HLA expression was calculated as the ratio of the mean fluorescence intensity (MFI) of peptide-pulsed RMA-S-C1202 cells to that of control (non-peptide-pulsed) cells kept at 26°C.

[4] = target: HLA-C*12:02 heavy chain and β2-microglobulin (Homo sapiens, UniProt P10321, A176E/A330V/C350S/D114A/D33Y/L171W/L180W/L218V/M285V/M309V/M331V/P208H/Q277E/Q291P/S123Y/S297R/S48A/T329A/T363A/V319A/V328M); experiment: peptide/HLA refolding assay analyzed by FPLC; format: binding; details: for refolded peptide/HLA-C*12:02/β2m complex FPLC peak Height: heavy chain 20 μM, β2m 2 μM, peptide 85 μM, 48 h at 4°C, Superdex 75, Fig. 2d; for refolding with HLA-C*12:02 heavy chain and β2m: low-temperature refolding, FPLC, result in words
Procedure: Refolding of peptides with the HLA heavy chain and β2m was performed as previously described ([74]). Briefly, HLA-C*12:02 heavy chain and β2m were overexpressed in Escherichia coli as inclusion bodies and solubilized with 8 M urea. Before refolding, only β2m was refolded and purified with Superdex 75 pg 26/600 (GE Healthcare) chromatography, and the solubilized HLA heavy chain was treated with 6 M guanidine hydrochloride at 4°C overnight. The dissolved HLA heavy chain, purified monomer β2m, and peptide (final concentrations of 20 μM, 2 μM, and 85 μM, respectively) were diluted in 10 ml of refolding buffer (100 mM Tris-HCl [pH 8.0], 400 mM L-arginine, 2 mM EDTA-Na, 5 mM reduced L-glutathione, and 0.5 mM oxidized L-glutathione). After 48 h of slow stirring at 4°C, the peptide–HLA-C complex was then concentrated and purified by Superdex 75 pg 26/600 (GE Healthcare) chromatography.

[5] = test system: CD8+ T cells; details: comparison Nef-MY9 vs Nef-MY10; previous study; cited from earlier work
From the text: In addition to Nef-VY9, which was previously reported as immunodominant HLA-C*12:02-restricted epitope MY9 ([52], [53]), the C-terminally extended Nef-VF10 peptide (VARELHPEYF) was also among the HIV-1 peptides identified here. […] (Nef-MY9) much more efficiently than […]Y (Nef-MY10) ([52]), despite the fact that the affinities of ...

Sequence | HLA restriction of T cell response: recognition of peptide-prepulsed 721.221 cells expressing single HLA alleles [1] | number of individuals with T cell response to the peptide [2] | binding to HLA-C*12:02 at higher peptide concentration [3] | refolded peptide/HLA-C*12:02/β2m complex FPLC peak Height [4] [mAU] | refolding with HLA-C*12:02 heavy chain and β2m [4] | binding to HLA-C*12:02 (stabilization of surface HLA expression, expression index) [3] | average magnitude of the T cell responses in individuals recognizing the epitope [2] [SFC/10^6 PBMCs] | affinities of binding to HLA-C*12:02, Nef-MY9 compared with Nef-MY10 [3] | recognition by PBMCs expanded in vitro with a peptide cocktail including MARELHPEYY [5]
DAKLVITTY [Vif-DY9, HIV-1 Vif 61–69 peptide …] | higher-magnitude response to Vif-DY9-pulsed HLA-B*35:01-expressing cells than to Vif-DY9-pulsed HLA-C*12:02-expressing cells | 1 | – | – | – | – | – | – | –
FLGKIWPSH [Gag-FH9, HIV-1 Gag 433–441 peptide …] | – | – | did not exhibit detectable binding | 2.27 | shown to refold with HLA-C*12:02 heavy chain and β2m molecules | – | – | – | –
ILKEPVHGVYY [Pol-IY11, HIV-1 Pol 464–474 peptide […]] | – | 5/20 | – | 4.88 | shown to refold with HLA-C*12:02 heavy chain and β2m molecules | exhibited affinity for HLA-C*12:02 molecules | 130 | – | –
KGALDLSHF [Nef-KF9, HIV-1 Nef 82–90 peptide; synthesized as …] | – | – | did not exhibit detectable binding | 4.48 | shown to refold with HLA-C*12:02 heavy chain and β2m molecules | – | – | – | –
LGKIWPSH [Gag-LH8, HIV-1 Gag 434–441 peptide LGKIWPSH] | – | – | did not exhibit detectable binding | 6.41 | shown to refold with HLA-C*12:02 heavy chain and β2m molecules | – | – | – | –
MARELHPEY [Nef-MY9, reference compound] | – | 5/20 | – | – | complex of HLA-C*12:02, peptide, and β2m was generated | exhibited affinity for HLA-C*12:02 molecules | 167 | similar | much more efficiently than […] (Nef-MY10)
MARELHPEYY [Nef-MY10, […], consensus version of Nef-VF10, reference compound] | – | – | – | – | – | – | – | similar | –
MSQVTNSATIM [Gag-MM11, HIV-1 Gag 367–377 peptide eluted from HLA-C*12:02; tested as clade B consensus […]] | – | – | did not exhibit detectable binding | 3.51 | shown to refold with HLA-C*12:02 heavy chain and β2m molecules | – | – | – | –
